Consider four compounds from patent US20200360322A1, “FORMULATIONS AND DOSAGE FORMS FOR ENHANCING PERFORMANCE OR RECOVERY FROM STRESS” (ACTIVATE BIO PHYSICS CORP., priority 2017, published 2020).

For assay [1] the following is noted: four- to seven-day alcohol poisoning or acute barbiturate poisoning.
The test system of assay [2] is animal after a 10-minute stop of blood flow. As to conditions: cited from earlier work.
A further assay concerns the target SUCNR1 (Homo sapiens, UniProt Q9BXA5). As to conditions: cited from earlier work.

SMILES strings stand for the structures.

SUCNR1, sequence (Q9BXA5 whole entry, species assumed): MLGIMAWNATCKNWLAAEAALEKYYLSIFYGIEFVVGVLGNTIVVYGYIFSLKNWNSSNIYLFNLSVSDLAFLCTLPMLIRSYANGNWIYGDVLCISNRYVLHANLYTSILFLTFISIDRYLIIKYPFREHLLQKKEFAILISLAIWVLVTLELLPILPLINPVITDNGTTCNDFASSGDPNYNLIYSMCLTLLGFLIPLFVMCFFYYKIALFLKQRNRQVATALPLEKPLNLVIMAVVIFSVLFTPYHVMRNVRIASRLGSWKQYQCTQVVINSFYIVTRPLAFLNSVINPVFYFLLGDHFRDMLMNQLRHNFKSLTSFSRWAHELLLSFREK

`O=C(O)CCC(=O)O` [natural conformer of succinic acid, succinic acid]: the severe intoxication result in assay [1] was “contributes to the prevention of severe intoxication”. `O=C([O-])CCC(=O)[O-].[Na+].[Na+]` [sodium succinate]: in assay [2] (abdominal injection after the stop of blood flow), the “condition of the central nervous system” value is given as “not only fails to improve, but can aggravate, the condition of the central nervous system”. `O=C(O)CCC(=O)O` [succinate]: on SUCNR1, the “concentration in interstitial fluid and blood sufficient for SUCNR1 activation and HIF dimer stabilization” value is recorded as 2.10^−4 mol; the “concentration needed to activate SUCNR1 or to stabilize HIF” value was 150 ± 180 µmol. In the case of `O=C(O)CCC(=O)O` [succinic acid], the “central nervous system recovery” value in assay [2] (oral administration) is listed as “improves the central nervous system's recovery”.
